According to paper PMC6934184, “Selective DNA-PKcs inhibition extends the therapeutic index of localized radiotherapy and chemotherapy” (The Journal of Clinical Investigation, 2019):

Target: T1, RET G691S (Homo sapiens, UniProt P07949, G691S)
T1 construct: purchased Thermo Fisher Scientific (Life Technologies) SelectScreen
Test: SelectScreen LanthaScreen
Format: binding
Conditions: read-out: % displacement
Summary of the method: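 Percent values come from Thermo SelectScreen profiling of NU5455, combining activity and binding assays. CSF1R was run in Z'LYTE format at Km app ATP, and CAMK1 in Adapta format with ATP listed at 10.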

T1 sequence (P07949 29-1114 G691S): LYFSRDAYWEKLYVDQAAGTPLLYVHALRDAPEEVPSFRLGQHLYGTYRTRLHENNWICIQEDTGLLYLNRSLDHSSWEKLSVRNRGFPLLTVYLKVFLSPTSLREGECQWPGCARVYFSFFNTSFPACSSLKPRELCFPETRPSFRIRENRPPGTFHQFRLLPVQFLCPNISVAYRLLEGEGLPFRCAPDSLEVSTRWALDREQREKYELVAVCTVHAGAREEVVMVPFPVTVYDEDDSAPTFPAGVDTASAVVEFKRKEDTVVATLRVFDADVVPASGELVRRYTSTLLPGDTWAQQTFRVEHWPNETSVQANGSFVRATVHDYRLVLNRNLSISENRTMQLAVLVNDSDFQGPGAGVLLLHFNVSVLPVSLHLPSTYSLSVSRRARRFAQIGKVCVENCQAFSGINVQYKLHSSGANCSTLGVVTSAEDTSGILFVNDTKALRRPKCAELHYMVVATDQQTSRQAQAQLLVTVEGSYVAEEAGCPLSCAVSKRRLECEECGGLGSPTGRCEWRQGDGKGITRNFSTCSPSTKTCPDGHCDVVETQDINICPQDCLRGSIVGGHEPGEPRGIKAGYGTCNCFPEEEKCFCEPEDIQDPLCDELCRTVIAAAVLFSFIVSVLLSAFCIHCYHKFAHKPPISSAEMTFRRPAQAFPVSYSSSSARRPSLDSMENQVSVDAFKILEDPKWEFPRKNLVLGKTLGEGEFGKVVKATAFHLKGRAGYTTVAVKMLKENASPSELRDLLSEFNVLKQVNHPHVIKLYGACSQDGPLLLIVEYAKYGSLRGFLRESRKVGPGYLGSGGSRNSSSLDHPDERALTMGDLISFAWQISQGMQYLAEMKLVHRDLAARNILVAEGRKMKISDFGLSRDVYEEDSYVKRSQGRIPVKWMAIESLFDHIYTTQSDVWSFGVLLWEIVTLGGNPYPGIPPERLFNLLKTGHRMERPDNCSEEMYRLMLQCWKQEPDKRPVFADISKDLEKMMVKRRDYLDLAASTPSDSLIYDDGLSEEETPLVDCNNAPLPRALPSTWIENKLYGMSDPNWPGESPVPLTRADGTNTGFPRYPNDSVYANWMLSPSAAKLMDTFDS

CN(C(=O)CN1CCOCC1)c1ccc2sc3c(-c4cccc5c(=O)cc(N6CC7CCC(C6)O7)oc45)cccc3c2c1 [NU5455]
inhibition at 1 µM: -1.8%
